This assay relates to paraquat-treated mouse brain. The assay is described as follows: Ex vivo screening of anti-aggregation compounds: Thioflavin S deposits in paraquat-treated mouse brain. As to conditions: 250 uM, FIG. 33D-E.

These results are taken from patent publication US10233422B2, “Pluripotent cell lines and methods of use thereof” (Parkinson's Institute, priority 2008, dated 2019).

Take `Oc1ccccc1O` [Catechol, catechol]: the “Thioflavin S deposits (which label aggregate protein)” value is listed as “Diminished Thioflavin S deposits”.
